Experimental data as given in patent publication US20220117938A1, “COMBINATON THERAPY WITH A DON PRODRUG AND AN IMMUNE CHECKPOINT INHIBITOR” (DRACEN PHARMACEUTICALS, INC., priority 2019, published 2022).

Test system: MC38 tumors
Test: Anti-tumor efficacy of Compound 1 and Compound 3 by IV and SC routes in the MC38 model (Example 9)
Assay type: in vivo, mice
Experimental: Female C57BL/6 mice were inoculated subcutaneously in the right flank with MC38 cells for tumor development. Six days after tumor inoculation, mice with tumor sizes ranging from 52-97 mm^3 (average tumor size 71 mm^3) were selected and assigned into 10 groups using stratified randomization with 8 mice per group based upon their tumor volumes. The treatments were started from the day of randomization (defined as D0), Group 1 was treated with Vehicle control, SC qd×5 days on (Mon-Fri)×4 cycles; Group 2 was treated with Compound 1, 1.4 mpk SC, qd×5 days on (Mon-Fri)×4 cycles; Group 3 was treated with Compound 1, 7 mpk IV, biw (Mon, Thu)×4 cycles; Group 4 was treated with Compound 1, 14 mpk IV, biw (Mon, Thu)×4 cycles; Group 5 was treated with Compound 1, 14 mpk IV, qw (Mon)×4 cycles; Group 6 was treated with Compound 1, 21 mpk IV, qw (Mon)×4 cycles; Group 7 was treated with Compound 3, 1 mpk SC, qd 5 days on (Mon-Fri)×4 cycles; Group 8 was treated with Compound 3, 3 mpk SC, qd 5 days on (Mon-Fri)×4 cycles; Group 9 was treated with Compound 3, 9 mpk SC, qd 5 days on (Mon-Fri)×4 cycles; and Group 10 was treated with Compound 3, 7 mpk IV, tiw (Mon, Wed, Fri)×4 cycles. The tumor sizes were measured three times per week during the treatment. Survival was monitored with tumor volume exceeding 2000 mm^3 as endpoint. The entire study was terminated on D44 after start of the treatment. All treatments were well-tolerated without any adverse effects or significant body weight loss.

[1] = Group 7, 1 mpk SC qd Mon-Fri x4 cycles
[2] = Group 7, 1 mpk SC qd Mon-Fri x4 cycles, day 11
[3] = Group 8, 3 mpk SC qd Mon-Fri x4 cycles
[4] = Group 8, 3 mpk SC qd Mon-Fri x4 cycles, day 11
[5] = Group 9, 9 mpk SC qd Mon-Fri x4 cycles
[6] = Group 9, 9 mpk SC qd Mon-Fri x4 cycles, day 11
[7] = Group 10, 7 mpk IV tiw x4 cycles

In the case of `CC(=O)N[C@@H](Cc1c[nH]c2ccccc12)C(=O)N[C@@H](CCC(=O)C=[N+]=[N-])C(=O)O` [Compound 3, (S)-2-((S)-2-acetamido-3-(1H-indol-3-yl)propanamido)-6-diazo-5-oxohexanoic acid], the ILS [1] is reported as 106.7%, the MST [1] is reported as 31 days and the “RTV at day 11” value [1] is reported as 2.22 ± 0.22. The “Tumor Size at day 11” value [1] was 152 ± 10 mm^3, the Tumor volume (Group 7, 1 mpk SC qd Mon-Fri x4 cycles, day 0) was 70 ± 4 mm^3 and the Tumor volume (Group 7, 1 mpk SC qd Mon-Fri x4 cycles, day 2) was 91 ± 9 mm^3. The Tumor volume (Group 7, 1 mpk SC qd Mon-Fri x4 cycles, day 4) was 83 ± 9 mm^3, the Tumor volume (Group 7, 1 mpk SC qd Mon-Fri x4 cycles, day 7) was 201 ± 26 mm^3 and the Tumor volume (Group 7, 1 mpk SC qd Mon-Fri x4 cycles, day 9) was 181 ± 18 mm^3. The T/C [2] was 13.66%, the TGI [2] was 92.34% and the Tumor volume [2] was 152 ± 10 mm^3. The Tumor volume (Group 7, 1 mpk SC qd Mon-Fri x4 cycles, day 14) was 293 ± 60 mm^3, the Tumor volume (Group 7, 1 mpk SC qd Mon-Fri x4 cycles, day 16) was 298 ± 60 mm^3 and the Tumor volume (Group 7, 1 mpk SC qd Mon-Fri x4 cycles, day 18) was 400 ± 79 mm^3. It also gave a Tumor volume (Group 7, 1 mpk SC qd Mon-Fri x4 cycles, day 21) of 644 ± 160 mm^3, a Tumor volume (Group 7, 1 mpk SC qd Mon-Fri x4 cycles, day 23) of 975 ± 238 mm^3 and an ILS [3] of 170.0%. The MST [3] was 40.5 days, the “RTV at day 11” value [3] was 0.85 ± 0.11 and the “Tumor Size at day 11” value [3] was 39 ± 5 mm^3. The Tumor volume (Group 8, 3 mpk SC qd Mon-Fri x4 cycles, day 0) was 70 ± 5 mm^3, the Tumor volume (Group 8, 3 mpk SC qd Mon-Fri x4 cycles, day 2) was 88 ± 7 mm^3 and the Tumor volume (Group 8, 3 mpk SC qd Mon-Fri x4 cycles, day 4) was 59 ± 9 mm^3. The Tumor volume (Group 8, 3 mpk SC qd Mon-Fri x4 cycles, day 7) was 57 ± 14 mm^3, the Tumor volume (Group 8, 3 mpk SC qd Mon-Fri x4 cycles, day 9) was 45 ± 6 mm^3 and the T/C [4] was 5.22%. It also gave a TGI [4] of 101.21%, a Tumor volume [4] of 39 ± 5 mm^3 and a Tumor volume (Group 8, 3 mpk SC qd Mon-Fri x4 cycles, day 14) of 41 ± 7 mm^3. The Tumor volume (Group 8, 3 mpk SC qd Mon-Fri x4 cycles, day 16) was 47 ± 7 mm^3, the Tumor volume (Group 8, 3 mpk SC qd Mon-Fri x4 cycles, day 18) was 22 ± 4 mm^3 and the Tumor volume (Group 8, 3 mpk SC qd Mon-Fri x4 cycles, day 21) was 29 ± 3 mm^3. For the same compound, the Tumor volume (Group 8, 3 mpk SC qd Mon-Fri x4 cycles, day 23) was 26 ± 2 mm^3, the Tumor volume (Group 8, 3 mpk SC qd Mon-Fri x4 cycles, day 25) was 23 ± 4 mm^3 and the Tumor volume (Group 8, 3 mpk SC qd Mon-Fri x4 cycles, day 28) was 22 ± 4 mm^3. For the same compound, the Tumor volume (Group 8, 3 mpk SC qd Mon-Fri x4 cycles, day 30) was 52 ± 8 mm^3, the Tumor volume (Group 8, 3 mpk SC qd Mon-Fri x4 cycles, day 32) was 213 ± 47 mm^3 and the Tumor volume (Group 8, 3 mpk SC qd Mon-Fri x4 cycles, day 35) was 351 ± 61 mm^3. It also gave a Tumor volume (Group 8, 3 mpk SC qd Mon-Fri x4 cycles, day 37) of 692 ± 129 mm^3, an ILS [5] of 180.0% and an MST [5] of 42 days. The “RTV at day 11” value [5] was 0.56 ± 0.07, the “Tumor Size at day 11” value [5] was 39 ± 5 mm^3 and the Tumor volume (Group 9, 9 mpk SC qd Mon-Fri x4 cycles, day 0) was 71 ± 5 mm^3. It also gave a Tumor volume (Group 9, 9 mpk SC qd Mon-Fri x4 cycles, day 2) of 88 ± 7 mm^3, a Tumor volume (Group 9, 9 mpk SC qd Mon-Fri x4 cycles, day 4) of 59 ± 9 mm^3 and a Tumor volume (Group 9, 9 mpk SC qd Mon-Fri x4 cycles, day 7) of 57 ± 14 mm^3. The Tumor volume (Group 9, 9 mpk SC qd Mon-Fri x4 cycles, day 9) was 45 ± 6 mm^3, the T/C [6] was 3.45% and the TGI [6] was 102.98%. The Tumor volume [6] was 39 ± 5 mm^3, the Tumor volume (Group 9, 9 mpk SC qd Mon-Fri x4 cycles, day 14) was 41 ± 7 mm^3 and the Tumor volume (Group 9, 9 mpk SC qd Mon-Fri x4 cycles, day 16) was 47 ± 7 mm^3. It also gave a Tumor volume (Group 9, 9 mpk SC qd Mon-Fri x4 cycles, day 18) of 22 ± 4 mm^3, a Tumor volume (Group 9, 9 mpk SC qd Mon-Fri x4 cycles, day 21) of 29 ± 3 mm^3 and a Tumor volume (Group 9, 9 mpk SC qd Mon-Fri x4 cycles, day 23) of 26 ± 2 mm^3. It also gave a Tumor volume (Group 9, 9 mpk SC qd Mon-Fri x4 cycles, day 25) of 23 ± 4 mm^3, a Tumor volume (Group 9, 9 mpk SC qd Mon-Fri x4 cycles, day 28) of 22 ± 4 mm^3 and a Tumor volume (Group 9, 9 mpk SC qd Mon-Fri x4 cycles, day 30) of 52 ± 8 mm^3. It also gave a Tumor volume (Group 9, 9 mpk SC qd Mon-Fri x4 cycles, day 32) of 213 ± 47 mm^3, a Tumor volume (Group 9, 9 mpk SC qd Mon-Fri x4 cycles, day 35) of 351 ± 61 mm^3 and a Tumor volume (Group 9, 9 mpk SC qd Mon-Fri x4 cycles, day 37) of 692 ± 129 mm^3. It also gave a Tumor volume (Group 9, 9 mpk SC qd Mon-Fri x4 cycles, day 39) of 1235 ± 196 mm^3, a Tumor volume (Group 9, 9 mpk SC qd Mon-Fri x4 cycles, day 42) of 2174 ± 275 mm^3 and an ILS [7] of 146.7%. For the same compound, the MST [7] was 37 days, the Tumor volume (Group 10, 7 mpk IV tiw x4 cycles, day 0) was 71 ± 5 mm^3 and the Tumor volume (Group 10, 7 mpk IV tiw x4 cycles, day 2) was 86 ± 5 mm^3. The Tumor volume (Group 10, 7 mpk IV tiw x4 cycles, day 4) was 76 ± 7 mm^3, the Tumor volume (Group 10, 7 mpk IV tiw x4 cycles, day 7) was 76 ± 8 mm^3 and the Tumor volume (Group 10, 7 mpk IV tiw x4 cycles, day 9) was 61 ± 7 mm^3. It also gave a Tumor volume (Group 10, 7 mpk IV tiw x4 cycles, day 11) of 68 ± 13 mm^3, a Tumor volume (Group 10, 7 mpk IV tiw x4 cycles, day 14) of 85 ± 16 mm^3 and a Tumor volume (Group 10, 7 mpk IV tiw x4 cycles, day 16) of 115 ± 21 mm^3. For the same compound, the Tumor volume (Group 10, 7 mpk IV tiw x4 cycles, day 18) was 107 ± 21 mm^3, the Tumor volume (Group 10, 7 mpk IV tiw x4 cycles, day 21) was 131 ± 21 mm^3 and the Tumor volume (Group 10, 7 mpk IV tiw x4 cycles, day 23) was 233 ± 46 mm^3. The Tumor volume (Group 10, 7 mpk IV tiw x4 cycles, day 25) was 273 ± 59 mm^3, the Tumor volume (Group 10, 7 mpk IV tiw x4 cycles, day 28) was 356 ± 103 mm^3 and the Tumor volume (Group 10, 7 mpk IV tiw x4 cycles, day 30) was 575 ± 121 mm^3. The Tumor volume (Group 10, 7 mpk IV tiw x4 cycles, day 32) was 849 ± 134 mm^3 and the Tumor volume (Group 10, 7 mpk IV tiw x4 cycles, day 35) was 1688 ± 223 mm^3.
